Measurements from article PMC3641071, “Pharmacokinetics and Efficacy of PEGylated Liposomal Doxorubicin in an Intracranial Model of Breast Cancer” (PLoS ONE, 2013).
pIC50: −log10 of the molar value. Read-outs that look alike come from different tables or passages of the source.

Experiments:
[1] = tested on: intracranial MDA-MB-231-BR human triple-negative breast cancer xenografts; assay: Efficacy study: median survival in intracranial model of breast cancer; format: in vivo, Foxn1nu/nu mice; details: single agent, control 26 (25-28)
Method: Therapeutic studies and assessment for response were performed with the assistance of the Mouse Phase I Unit (MP1U). Female, Foxn1^nu/nu mice, approximately 20 grams and aged 8 weeks of age were bred in-house from animals purchased from Charles River Laboratories International, Inc. (Wilmington, MA; Stock #490) and were used for all studies. […] Cells were stereotactically-injected into the right caudate nucleus of the basal ganglia using a 27 gauge needle (from Bregma a:1.0mm, l:-2.0 mm, d:-4.0 mm) which remained in place for a period of 2 minutes (min) to minimize reflux through the needle track.
The Kaplan-Meier method and Log-rank tests were used to evaluate and compare overall survival among treatment groups. Unadjusted p-values are reported. For bioluminescence imaging, fold changes were calculated relative to the start date of treatment. […] For every time point where at least two animals were alive in the treatment group, the median level and interquartile range (25th–75th percentile) for bioluminescence imaging were calculated.

[2] = tested on: intracranial MDA-MB-231-BR luciferase-expressing tumors; assay: Bioluminescence imaging of intracranial tumors; format: in vivo, Foxn1nu/nu mice
Method: All animals were anesthetized via inhalation with 2% vaporized isoflurane during the imaging process. Approximately 15 min prior to imaging, all inoculated mice received an intraperitoneal (IP) injection of D-Luciferin dissolved in PBS (150 mg/kg; Caliper Life Sciences, Hopkinton, MA). To confirm the presence or absence of intracranial tumor, mice were imaged using the IVIS Lumina camera (Caliper Life Sciences, Hopkinton, MA). Images were analyzed using Living Image 4.0 Software (Caliper Life Sciences, Hopkinton, MA). All values were recorded as photons/second and were corrected for the presence of background signal.
Treatment was ongoing until clinical symptoms necessitated sacrifice. […] Mice were weighed a minimum of three times/weekly and were monitored by optical imaging weekly until clinical symptoms (i.e. decreased response to stimuli, neurologic dysfunction, weight loss of 20% and/or a Body Composition Score of 2 or less) necessitated sacrifice.
The Kaplan-Meier method and Log-rank tests were used to evaluate and compare overall survival among treatment groups. […] For bioluminescence imaging, fold changes were calculated relative to the start date of treatment. If present, negative imaging values (due to correction for background) were recorded and set to zero. […]

[3] = tested on: MDA-MB-231-BR cells; assay: Cell viability (MTS) assay, single agent and combination treatments; format: cell-based; details: Homo sapiens, read-out: IC50 (50% reduction in MTS dye conversion), 72 hours, single agent
Method: A mitochondrial dye conversion assay (Cell Titer 96® Aqueous One Solution Cell Proliferation Assay; Promega Corp., Madison, WI) was used to measure cell viability after treatment. This assay was conducted according to manufacturer's instructions, with modifications. […] Cell counting was performed with an automated cell counter. Cells were allowed to adhere overnight, and media was replaced with fresh media containing a range of drug doses. After the specified treatment period, 20 µl of tetrazolium compound inner salt (MTS) containing an electron coupling reagent, phenazine ethosulfate (PES) was added in each well and incubated at 37°C for 1 hour (h). The MTS absorbance was measured spectrophotometrically at 490 nm (minus background absorbance). All cytotoxic experiments were done in triplicate.
Drug combination interactions were analyzed using methods developed by Chou and Talalay.
CalcuSyn (BioSoft, Cambridge, UK) was used to estimate the IC50 for each drug and to determine the combination index, which is a measurement of the type of drug interactions. A combination index (CI) of 1 indicates an additive response, <1 indicates a synergistic response, and >1 indicates an antagonistic response.

[4] = tested on: formation of PAR in MDA-MB-231-BR cellular extracts; assay: PAR levels in cellular extracts (HT PARP in vivo Pharmacodynamic Assay II); format: cell-based, human; details: data not shown
Method: Doxorubicin (NonL-doxo) and PEGylated liposomal doxorubicin (PLD, Doxil®) were both obtained from the University of North Carolina (UNC) Hospitals Pharmacy (Chapel Hill, NC). The poly-ADP-ribose polymerase (PARP) inhibitor, ABT-888, was synthesized by the Chemistry Center for Integrative Chemical Biology and Drug Discovery at UNC (Dr. S. Frye). ABT-888 was dissolved in PBS (phosphate-buffered saline, Life Technologies, Grand Island, NY). The molecular weight of pure ABT-888 is 244.29 g/mol, while the molecular weight of the salt form (which includes 2 HCl molecules) is 317.21 g/mol. All calculations were performed using the molecular weight of the salt form of ABT-888. The ability of ABT-888 to inhibit the formation of PAR was confirmed by measuring PAR levels in MDA-MB-231-BR cellular extracts using HT PARP in vivo Pharmacodynamic Assay II (Trevigen, Gaitherburg, MD, data not shown).

[5] = Pharmacokinetic study: sum total doxorubicin in plasma, brain tumor and brain by HPLC-FL; format: in vivo; details: 6 mg/kg IV x1; for AUC(0-inf): read-out: AUC0-∞ of sum total doxorubicin
Method: Group 1 (n = 23) received NonL-doxo administered over 10–15 seconds at 6 mg/kg IV ×1 via tail vein.
Approximately 1 mL of blood was collected via terminal cardiac puncture following deep anesthesia (ketamine 100 mg/kg IP ×1 and Domitor® 1 mg/kg IP ×1) using sodium heparin as an anticoagulant and centrifuged at 1,500 g for 5 minutes to collect plasma. Brain tumor, peri-tumoral brain and normal (contralateral, non-tumor) brain were collected from each mouse. Plasma, tumor, and tissues were placed in cryopreservation vials and preserved by snap freezing using liquid nitrogen. All samples were stored at −80°C until analysis.
Total tissue and tumor weight was recorded at time of collection. Whole tissue and tumors were snap frozen in liquid nitrogen and stored at −80°C until homogenized. To form tissue and tumor homogenates, the intact tissues and tumors were thawed and sectioned. The sections were weighed and diluted in a 1:3 ratio with phosphate buffered saline (PBS) solution. Finally, these mixtures were homogenized by placing zirconium oxide beads (15 small and 2 large; Omni International Inc, Kennesaw, GA) into 2 mL tubes at […] using a Precellys 24 homogenizer (Omni International Inc, Kennesaw, GA) twice for 15 sec each with a 5 sec wait between each run.
Samples were further processed for the analytical studies using protein precipitation with acetonitrile. An 800 µL of extraction solution containing internal standard (acetonitrile with 100 ng/mL daunorubicin) was added to 200 µL of plasma, tumor or tissue homogenate into a 2 mL microcentrifuge tube. The samples were vortexed for 10 min and centrifuged at 10,000×g for 10 min at 4°C. […] The samples were then vortexed, transferred into auto-sampler vials and analyzed by high-performance liquid chromatography (HPLC) using fluorescence (FL) detection (excitation wavelength: 490 nm/ emission wavelength: 590 nm). The HPLC-FL method to measure sum total (encapsulated and released) doxorubicin in plasma, tumor, and tissues was modified from previous studies, [23], [24].
The area under the concentration versus time curve from 0 to ∞ (AUC0–∞) was calculated using the linear up/log down rule. The plasma volume of distribution (Vd), clearance (CL), and half-life (t1/2) were calculated using standard equations. The maximum concentration (Cmax) and time of Cmax (tmax) were determined by visual inspection of the concentration versus time data.

[6] = female, athymic nude (nu/nu), mouse, brain tumor
[7] = female, athymic nude (nu/nu), mouse, normal brain
[8] = female, athymic nude (nu/nu), mouse, peri-tumoral brain
[9] = female, athymic nude (nu/nu), mouse, plasma

For C[C@]1(c2nc3c(C(N)=O)cccc3[nH]2)CCCN1 [ABT-888], the “Median Survival and 95% CI” value ([1]; ABT-888 25 mg/kg/day oral gavage, 25 mg/kg/day) was 27 (24 – 31) days, the “highest median fold change from baseline in bioluminescence” value ([2]; ABT-888 25 mg/kg/day OG, 4 weeks post-treatment, control 87.8 at 3 weeks) was 41.8 and the pIC50 [3] was 3.56. For the same molecule, the “ability to inhibit the formation of PAR” value [4] was “confirmed”.
For COc1cccc2c1C(=O)c1c(O)c3c(c(O)c1C2=O)C[C@@](O)(C(=O)CO)C[C@@H]3O[C@H]1C[C@H](N)[C@H](O)[C@H](C)O1 [NonL-doxo, Doxorubicin], the “time after which sum total doxorubicin was undetectable” value (from here on “time”) ([5]; brain tumor) was 24 h, the Cmax [5, 6] was 570 ng/mL and the Tmax [5, 6] was 6 h. It also gave an AUC(0-inf) [5, 6] of 12100 ng·h/mL, an AUC(0-inf) ([5]; female, athymic nude (nu/nu), mouse, normal (contralateral, non-tumor) brain) of 326 ng·h/mL and a Cmax [5, 7] of 92 ng/mL. It also gave a Tmax [5, 7] of 1 h, a Cmax [5, 8] of 32 ng/mL and a Tmax [5, 8] of 3 h. For the same molecule, the AUC(0-inf) [5, 8] was 283 ng·h/mL, the Cmax [5, 9] was 831 ng/mL and the Tmax [5, 9] was 0.083 h. The Vd [5, 9] was 56.2 L/kg, the AUC(0-inf) ([5]; female, athymic nude (nu/nu), mouse, plasma, noncompartmental) was 1540 ng·h/mL and the clearance ([5]; female, athymic nude (nu/nu), mouse, plasma, read-out: CL of sum total doxorubicin (converted)) was 64.7 mL/min/kg. The half-life ([5]; female, athymic nude (nu/nu), mouse, plasma, read-out: t1/2 of sum total doxorubicin (converted)) was 10 h, the “time” value ([5]; normal (contralateral, non-tumor) brain) was 3 h and the “time” value ([5]; peri-tumoral brain) was 6 h. The “time” value ([5]; plasma) was 24 h, the “Median Survival and 95% CI” value ([1]; 6 mg/kg IV weekly, from intracranial cell injection) was 23.5 (18 – 28) days and the “highest median fold-change in bioluminescence” value ([2]; 6 mg/kg IV weekly single agent, 3 weeks post-treatment) was 4.6. For the same molecule, the pIC50 [3] was 6.62.
